In test [1] the test system is C57BL/6NCrj mice. Briefly: light-dark exploration test, SB-334867 (Example 3). The class given is in vivo.
Description: Specifically, two types of solutions, 0.50 nmol/μl and 1.50 nmol/μl, were prepared. The artificial cerebrospinal fluid (aCSF) was used alone as a negative control.
The position of the inserted cannula was also confirmed in the same manner.
The following three subject groups were tested.
The test apparatus consisted of a dark compartment (depth 10 cm×width 15 cm length 20 cm) and a light compartment (depth 20 cm×width 15 cm×length 20 cm). Specifically, the dark compartment was made of a black plastic material with a lid on top whereas the light compartment was made of a white plastic material with an open top. Both of the light and dark compartments were connected via a black plastic tunnel (depth 7 cm×width 10 cm×length 4.5 cm) that allows access to both compartments.
At the end of the test, the total time spent in the light compartment was calculated for each test animal, and the results were expressed as “average time+SEM” for each test subject (see FIG. 4). […]
In a further test the test system is WISTAR rats. Briefly: elevated plus maze test, orexin-A (Example 1). In kind it is in vivo. As to conditions: intracerebroventricular administration to rats, 0.1 to 3.0 nmol, 15 minutes before test; 5 min test. The protocol:
WISTAR rats (male, 300 to 400 g, Charles River, Japan) were used for the elevated plus maze test. Two […] were bred per cage.
(§1) Orexin-A (Peptide Institute Inc., Osaka, Japan) was dissolved in an artificial cerebrospinal fluid (aCSF: glucose 10 mM, KCl 2 mM, NaCl 115 mM, CaCl2 2.5 mM, MgSO4 1.2 mM, NaHCO3 25 mM, KH2PO4 2.2 mM; pH 7. 4) to prepare solutions at various concentrations (0.1 nmol/μl, 0.3 nmol/μl, 1.0 nmol/μl, 3.0 nmol/μl). The artificial cerebrospinal fluid was used alone as a negative control.
(§2) A stainless-steel injection needle was used that can be inserted into the lateral ventricle to a point 0.5 mm deeper than the tip of the guide cannula for intracerebroventricularly administering an orexin-A solution. The amounts of orexin-A solution were 2 μl and 5 μl for mice and rats, respectively. A microsyringe (705N 50 μl, Hamilton, Nevada, USA) was connected to a reflux pump (CMA100, BAS Inc., Tokyo, Japan) for injection at a precisely constant rate (1 μl/min for mice and 2.5 μl/min for rats).
The following five subject groups were tested. […]
At the end of the test, the total time spent in the open arms was calculated for each test animal, and the results were expressed as “average time+SEM” for each test subject (see FIG. 2). […]

Test [2] concerns C57BL/6NCrj mice. Briefly: light-dark exploration test, orexin-A (Example 1). As to conditions: for time spent in the light compartment, difference from the aCSF administration group: intracerebroventricular, mice. The class given is in vivo. The protocol:
C57BL/6NCrj mice (male, 25 to 30 g, Charles River, Japan) were used for the light-dark exploration test. Ten mice were bred per cage.
as §1, §2
The following four subject groups were tested.
The test apparatus consisted of two compartments, namely a dark compartment (depth 10 cm×width 15 cm×length 20 cm) and a light compartment (depth 20 cm×width 15 cm×length 20 cm). Specifically, the dark compartment was made using a black plastic material with a lid on top whereas the light compartment was made using a white plastic material with an open top. Both of the light and dark compartments were connected via a black plastic tunnel (depth 7 cm×width 10 cm×length 4.5 cm) that allows access to both compartments.
The illumination of the test room was set to 150 lux. The test animals were habituated to an illumination of 10 lux in another room for more than 3 hours before starting the test (except upon administration). This test was conducted between 13:00 to 16:00. […]
At the end of the test, the total time spent in the light compartment was calculated for each test animal, and the results were expressed as “average time+SEM” (see FIG. 1). […]

In another test the test system is mouse. As to conditions: intracerebroventricular administration to a mouse; cited from earlier work.
The subject of test [3] is C57BL/6NCrj mice. Briefly: elevated plus maze test, orexin-A (Example 2). In kind it is in vivo. As to conditions: 1.0 nmol orexin-A, intracerebroventricular, vs aCSF administration group, p<0.05. The procedure: C57BL/6NCrj mice (male, 25 to 30 g, Charles River, Japan) were used. Ten mice were bred per cage.
Orexin-A (Peptide Institute Inc., Osaka, Japan) was dissolved in an artificial cerebrospinal fluid (aCSF: glucose 10 mM, KCl 2 mM, NaCl 115 mM, CaCl2 2.5 mM, MgSO4 1.2 mM, NaHCO3 25 mM, KH2PO4 2.2 mM; pH 7.4) to prepare a solution at a predetermined concentration (1.0 nmol/μl). The artificial cerebrospinal fluid was used alone as a negative control.
A stainless-steel injection needle was used that can be inserted into the lateral ventricle at a point 0.5 mm deeper than the tip of the guide cannula for intracerebroventricular administration of the orexin-A solution. The amount of the orexin-A solution was 2 μl. A microsyringe (705N 50 μl, Hamilton, Nevada, USA) was connected to a reflux pump (CMA100, BAS Inc., Tokyo, Japan) for injection at a precisely constant rate (1 μl/min).
The following two subject groups were tested.
The elevated plus maze test was basically carried out according to the test procedure described in S. Pellow et al. (J. Neurosci. Methods, vol. 14 (1985), p-149-167). […]
At the end of the test, the total time spent in the open arms was calculated for each test animal, and the results were expressed as “average time+SEM” for each test subject (see FIG. 3). […]

For another test, the target named is T1, orexin receptor-2 (OX2R) (Homo sapiens, UniProt O43614).
T1 sequence (O43614 1-444): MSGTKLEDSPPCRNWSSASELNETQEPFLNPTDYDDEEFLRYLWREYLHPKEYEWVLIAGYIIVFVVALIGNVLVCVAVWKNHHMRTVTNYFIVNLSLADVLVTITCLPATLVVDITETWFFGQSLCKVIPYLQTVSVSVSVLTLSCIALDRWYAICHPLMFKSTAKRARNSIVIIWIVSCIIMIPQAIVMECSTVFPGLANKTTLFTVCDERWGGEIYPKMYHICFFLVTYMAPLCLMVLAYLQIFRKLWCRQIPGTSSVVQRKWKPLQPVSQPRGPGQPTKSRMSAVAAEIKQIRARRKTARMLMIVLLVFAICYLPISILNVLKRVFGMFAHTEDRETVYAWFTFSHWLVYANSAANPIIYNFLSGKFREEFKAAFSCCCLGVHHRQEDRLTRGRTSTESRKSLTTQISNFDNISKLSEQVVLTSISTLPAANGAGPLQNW
As to conditions: orexin-A compared with orexin-B; cited from earlier work.

Ends that are not written are not given here.

As to `Cc1nc2ccc(NC(=O)Nc3ccnc4cccnc34)cc2o1` [SB-334867, 1-(2-methylbenzoxazole 6-yl)-3-[1,5]naphthyridine-4-yl urea], the “time spent in the light compartment” value in the test on C57BL/6NCrj mice [1] (intracerebroventricular administration to mice, 1 nmol and 3 nmol, 15 minutes before test, 5 min test) is on record as “lengthened time spent in the light compartment dosage-dependently”. The “assessment result: action on anxiety” value in the test on C57BL/6NCrj mice [1] (light-dark exploration test, mice, intracerebroventricular) is listed as “anxiogenic action”.
On to “orexin-A: neuropeptide, endogenous orexin receptor ligand; 33 amino acids with two disulfide bonds; from Peptide Institute Inc. (QPLPDCCRQKTCSCRLYELLHGAGNHAAGILTL; disulfide (positions not given here); ends not checked; also: two disulfide bonds, pairing not given here; UniProt O43612 34-66, looked up)”, for which the “time spent in the open arms” value in the test on WISTAR rats is “shortened volume-dependently”. Further, the “time spent in the light compartment, difference from the aCSF administration group” value in the test with C57BL/6NCrj mice [2] (0.1 nmol orexin-A administration group) and in the test with C57BL/6NCrj mice [2] (1.0 nmol orexin-A administration group) was “significant difference” in each case. Moreover, the “time spent in the light compartment” value with C57BL/6NCrj mice [2] (intracerebroventricular administration to mice 15 minutes before test, 5 min test, vs aCSF) is “significantly shortened”. Besides, in the test on mouse, the “stress-like behaviors such as face washing, grooming, searching and burrowing” value is reported as “increases”. Besides, the “time spent in the open arms (elevated plus maze test, FIG. 3)” value in the test on C57BL/6NCrj mice [3] is “significantly shortened”.
On to “orexin-B: neuropeptide, endogenous orexin receptor ligand comprising 28 amino acids”, for which, in the test with orexin receptor-2 (OX2R), the “binding affinity of OX2R” value is “generally the same level”.

(Values after patent publication US7501395B2, “Method of screening for antianxiety drugs” (Eisai R & D Management Co., Ltd., priority 2005, dated 2009).)
